Test results taken from patent US4563472A, “Iodoallyl and iodopropargyl substituted tetrazoles and anti-microbial compositions thereof” (Meiji Seika Kaisha, Ltd., priority 1982, dated 1986).
Values after ≈ are worked out from the molar mass of the structure shown.

Columns and labels:
Erwinia carotovora = assay: Antibacterial and Antifungal Activities (in Agricultural Field), MIC; assay type: cell-based; details: Pectobacterium carotovorum, read-out: Minimal Inhibitory Conc. (MIC)
[1] = test system: Trichoderma T-1 ATCC 9645; assay: Antifungal Activity (in Industrial Field), MIC; assay type: cell-based; details: ATCC9645, read-out: Minimal Inhibitory Conc. (MIC)
[2] = test system: Staphylococcus epidermidis ATCC 14990; assay: Antibacterial Activity (in medicinal field), MIC; assay type: cell-based; details: Staphylococcus epidermidis, ATCC14990, read-out: Minimal Inhibitory Conc. (MIC)
Glomerella cingulata = assay: Antibacterial and Antifungal Activities (in Agricultural Field), MIC; assay type: cell-based; details: Colletotrichum gloeosporioides, read-out: Minimal Inhibitory Conc. (MIC)
[3] = test system: Aspergillus flavus ATCC 6275; assay: Antifungal Activity (in Industrial Field), MIC; assay type: cell-based; details: ATCC6275, read-out: Minimal Inhibitory Conc. (MIC)
Pellicularia filamentosa = assay: Antibacterial and Antifungal Activities (in Agricultural Field), MIC; assay type: cell-based; details: read-out: Minimal Inhibitory Conc. (MIC)
Gibberella fujikuroi = assay: as above; assay type: cell-based; details: Fusarium fujikuroi, read-out: Minimal Inhibitory Conc. (MIC)
Alternaria kikuchiana = assay: as above; assay type: cell-based; details: read-out: Minimal Inhibitory Conc. (MIC)
[4] = test system: Trichophyton interdigitale; assay: Antifungal Activity (in Medicinal Field), MIC; assay type: cell-based; details: read-out: Minimal Inhibitory Conc. (MIC)
Diaporithe citri = assay: Antibacterial and Antifungal Activities (in Agricultural Field), MIC; assay type: cell-based; details: read-out: Minimal Inhibitory Conc. (MIC)
[5] = test system: Shigella sonnei EW 33 Type I; assay: Antibacterial Activity (in medicinal field), MIC; assay type: cell-based; details: EW33TYPEI; Shigella sonnei EW 33 Type I; read-out: Minimal Inhibitory Conc. (MIC)
[6] = test system: Trichophyton mentagrophytes; assay: Therapeutic experiment on trichophytosis in guinea pigs, visual observation; assay type: in vivo, guinea pigs (White Hartly-strain); details: 1% preparation, 0.25 ml once per day, 8 consecutive days
Proteus vulgaris OX-19 = assay: Antibacterial Activity (in medicinal field), MIC; assay type: cell-based; details: OX19, read-out: Minimal Inhibitory Conc. (MIC)
[7] = test system: Pseudomonas syringae pv. tabaci; assay: Antibacterial and Antifungal Activities (in Agricultural Field), MIC; assay type: cell-based; details: read-out: Minimal Inhibitory Conc. (MIC)
[8] = test system: Staphylococcus aureus 209P JC-1; assay: Antibacterial Activity (in medicinal field), MIC; assay type: cell-based; details: Staphylococcus aureus, 209P, read-out: Minimal Inhibitory Conc. (MIC)
[9] = test system: Colletotrichum lagenarium; assay: Antibacterial and Antifungal Activities (in Agricultural Field), MIC; assay type: cell-based; details: Colletotrichum orbiculare, read-out: Minimal Inhibitory Conc. (MIC)
[10] = test system: Aspergillus terreus PQMD 82 j; assay: Antifungal Activity (in Industrial Field), MIC; assay type: cell-based; details: PQMD82J, read-out: Minimal Inhibitory Conc. (MIC)
[11] = test system: Trichophyton mentagrophytes; assay: Reducing culture positive rate of skin slices from infected guinea pigs; assay type: in vivo, guinea pigs (White Hartly-strain); set-up: concentration or dose not given beside the values; details: after 8 days application, non-treated 100
[12] = test system: Fusarium oxysporum f. lycopersici; assay: Antibacterial and Antifungal Activities (in Agricultural Field), MIC; assay type: cell-based; details: read-out: Minimal Inhibitory Conc. (MIC)
[13] = test system: Xanthomonas campestris pv. citri; assay: as above; assay type: cell-based; details: read-out: Minimal Inhibitory Conc. (MIC)
[14] = test system: Corynebacterium michiganense; assay: as above; assay type: cell-based; details: Clavibacter michiganensis, read-out: Minimal Inhibitory Conc. (MIC)
[15] = test system: Pseudomonas cepacia M-0527; assay: Antibacterial Activity (in medicinal field), MIC; assay type: cell-based; details: Burkholderia cepacia, M0527, read-out: Minimal Inhibitory Conc. (MIC)
[16] = test system: Escherichia coli NIHJ JC-2; assay: Antibacterial Activity (in medicinal field), MIC; assay type: cell-based; details: NIHJJC2, read-out: Minimal Inhibitory Conc. (MIC)
[17] = test system: Staphylococcus faecalis ATCC 8043; assay: Antibacterial Activity (in medicinal field), MIC; assay type: cell-based; details: ATCC8043, read-out: Minimal Inhibitory Conc. (MIC)
[18] = test system: Serratia marcescens MB-3848; assay: Antibacterial Activity (in medicinal field), MIC; assay type: cell-based; details: MB3848, read-out: Minimal Inhibitory Conc. (MIC)
Phricularia oryzae = assay: Antibacterial and Antifungal Activities (in Agricultural Field), MIC; assay type: cell-based; details: read-out: Minimal Inhibitory Conc. (MIC)
Candida alubicans GA-24 = assay: Antifungal Activity (in Medicinal Field), MIC; assay type: cell-based; details: GA24; Candida alubicans GA-24; read-out: Minimal Inhibitory Conc. (MIC)
[19] = test system: Xanthomonas campestris pv. oryzae; assay: microbe, parasite or virus in culture; assay type: cell-based; details: read-out: Minimal Inhibitory Conc. (MIC)
Mucor spinescens IAM Mu3 = assay: Antifungal Activity (in Industrial Field), MIC; assay type: cell-based; details: IAMMU3, read-out: Minimal Inhibitory Conc. (MIC)
[20] = test system: Trichophyton metagrophytes 530324; assay: Antifungal Activity (in Medicinal Field), MIC; assay type: cell-based; details: Trichophyton metagrophytes 530324; read-out: Minimal Inhibitory Conc. (MIC)
[21] = test system: Penicillium luteum ATCC 9644; assay: Antifungal Activity (in Industrial Field), MIC; assay type: cell-based; details: Ascospirella lutea, ATCC9644, read-out: Minimal Inhibitory Conc. (MIC)
[22] = test system: Pullularia pullulans IAM F-24; assay: Antifungal Activity (in Industrial Field), MIC; assay type: cell-based; details: IAMF24; Pullularia pullulans IAM F-24; read-out: Minimal Inhibitory Conc. (MIC)
[23] = test system: Aspergillus fumigatus Saito; assay: Antifungal Activity (in Medicinal Field), MIC; assay type: cell-based; details: read-out: Minimal Inhibitory Conc. (MIC)
[24] = test system: Aspergillus fumigatus IAM 2621; assay: Antifungal Activity (in Industrial Field), MIC; assay type: cell-based; details: IAM2621, read-out: Minimal Inhibitory Conc. (MIC)
Botrytis cinerea = assay: Antibacterial and Antifungal Activities (in Agricultural Field), MIC; assay type: cell-based; details: read-out: Minimal Inhibitory Conc. (MIC)
[25] = test system: Chaetomium globosum ATCC 6205; assay: Antifungal Activity (in Industrial Field), MIC; assay type: cell-based; details: ATCC6205, read-out: Minimal Inhibitory Conc. (MIC)
Cochliobolus miyabeanus = assay: Antibacterial and Antifungal Activities (in Agricultural Field), MIC; assay type: cell-based; details: Bipolaris oryzae, read-out: Minimal Inhibitory Conc. (MIC)
[26] = test system: Cladosporium herbarum IAM F-517; assay: Antifungal Activity (in Industrial Field), MIC; assay type: cell-based; details: IAMF517, read-out: Minimal Inhibitory Conc. (MIC)
[27] = test system: Cryptococcus neoformans Cr-1; assay: Antifungal Activity (in Medicinal Field), MIC; assay type: cell-based; details: CR1, read-out: Minimal Inhibitory Conc. (MIC)

O=[N+]([O-])c1cn(CC(I)=C(I)I)c(Cl)c1Cl [1-(2',3',3'-triiodoallyl)-2,3-dichloro-4-nitropyrrole]
MIC (Erwinia carotovora): > 50 µg/mL
MIC [1]: 6.25 µg/mL (≈ 10.4 µM)
MIC [2]: 31.2 µg/mL (≈ 52.1 µM)
MIC (Glomerella cingulata): 1.56 µg/mL (≈ 2.61 µM)
MIC [3]: 0.78 µg/mL (≈ 1.3 µM)
MIC (Pellicularia filamentosa): > 50 µg/mL
MIC (Gibberella fujikuroi): 3.12 µg/mL (≈ 5.21 µM)
MIC (Alternaria kikuchiana): 6.25 µg/mL (≈ 10.4 µM)
MIC [4]: 1.56 µg/mL (≈ 2.61 µM)
MIC (Diaporithe citri): 0.78 µg/mL (≈ 1.3 µM)
MIC [5]: 6.25 µg/mL (≈ 10.4 µM)
Therapeutic Effect: Desquamation [6]: effective
Therapeutic Effect: Thickening [6]: effective
MIC (Proteus vulgaris OX-19): 6.25 µg/mL (≈ 10.4 µM)
MIC [7]: > 50 µg/mL
MIC [8]: 31.2 µg/mL (≈ 52.1 µM)
MIC [9]: 1.56 µg/mL (≈ 2.61 µM)
MIC [10]: 1.56 µg/mL (≈ 2.61 µM)
Reducing Culture Positive Rate ([11]; 3 days culture): 0%
Reducing Culture Positive Rate ([11]; 5 days culture): 16.7%
Reducing Culture Positive Rate ([11]; 7 days culture): 16.7%
MIC [12]: 6.25 µg/mL (≈ 10.4 µM)
MIC [13]: > 50 µg/mL
MIC [14]: 6.25 µg/mL (≈ 10.4 µM)
MIC [15]: 6.25 µg/mL (≈ 10.4 µM)
MIC [16]: 12.5 µg/mL (≈ 20.9 µM)
MIC [17]: 31.2 µg/mL (≈ 52.1 µM)
MIC [18]: 6.25 µg/mL (≈ 10.4 µM)
MIC (Phricularia oryzae): 6.25 µg/mL (≈ 10.4 µM)
MIC (Candida alubicans GA-24): 0.39 µg/mL (≈ 0.651 µM)
MIC [19]: > 50 µg/mL
MIC (Mucor spinescens IAM Mu3): > 50 µg/mL
MIC [20]: 0.19 µg/mL (≈ 0.317 µM)
MIC [21]: 6.25 µg/mL (≈ 10.4 µM)
MIC [22]: > 50 µg/mL
MIC [23]: 0.19 µg/mL (≈ 0.317 µM)
MIC [24]: 25 µg/mL (≈ 41.8 µM)
MIC (Botrytis cinerea): 12.5 µg/mL (≈ 20.9 µM)
MIC [25]: 50 µg/mL (≈ 83.5 µM)
MIC (Cochliobolus miyabeanus): 50 µg/mL (≈ 83.5 µM)
MIC [26]: 0.2 µg/mL (≈ 0.334 µM)
MIC [27]: 0.19 µg/mL (≈ 0.317 µM)

O=[N+]([O-])c1cc(Cl)n(CC(I)=C(I)I)c1 [1-(2',3',3'-triiodoallyl)-2-chloro-4-nitropyrrole]
MIC [1]: 6.25 µg/mL (≈ 11.1 µM)
MIC [2]: 6.25 µg/mL (≈ 11.1 µM)
MIC [3]: 0.39 µg/mL (≈ 0.691 µM)
MIC [5]: 12.5 µg/mL (≈ 22.2 µM)
MIC (Proteus vulgaris OX-19): 12.5 µg/mL (≈ 22.2 µM)
MIC [8]: 6.25 µg/mL (≈ 11.1 µM)
MIC [10]: 1.56 µg/mL (≈ 2.76 µM)
MIC [15]: 12.5 µg/mL (≈ 22.2 µM)
MIC [16]: 12.5 µg/mL (≈ 22.2 µM)
MIC [17]: 6.25 µg/mL (≈ 11.1 µM)
MIC [18]: 12.5 µg/mL (≈ 22.2 µM)
MIC (Mucor spinescens IAM Mu3): 3.13 µg/mL (≈ 5.55 µM)
MIC [21]: 1.56 µg/mL (≈ 2.76 µM)
MIC [22]: 1.56 µg/mL (≈ 2.76 µM)
MIC [24]: 0.78 µg/mL (≈ 1.38 µM)
MIC [25]: 3.13 µg/mL (≈ 5.55 µM)
MIC [26]: 0.2 µg/mL (≈ 0.354 µM)
